# Measured values from PMC8073907, “Peptide targeting of lysophosphatidylinositol-sensing GPR55 for osteoclastogenesis tuning” (Cell Communication and Signaling : CCS, 2021).
# Tests used:
# ssGPR55-Q87A = assay: GPR55-internalisation assay, Q87A mutant (FACS); assay type: cell-based, human; settings: HeLa, 10 µM soybean LPI, 15 min, three independent experiments
# Text: The construct of haemagglutinin (HA)-tagged human GPR55 in pcDNA3 (HA-GPR55) was a gift from Prof. K. Mackie, Indiana University, Bloomington, IN, USA [39], while the construct ss-3 × HA-GPR55 in pcDNA3.1 (ssGPR55) with a triple HA tag at the N-terminus and an optimised signal sequence (ss, derived from amino acids 1–33 of the human growth hormone: […]) for efficient surface expression was from Prof. A. Irving, Dundee University, UK [40]. For both constructs, mutations were introduced by site-directed mutagenesis using QuickChange kits (Stratagene, La Jolla, CA, USA), according to the manufacturer instructions. The primers for the K80A mutation were 5′-[…]-3′ and 5′-[…]-3′ (Tm, 70.6 °C), and for Q87A were 5′-[…]-3′ and 5′-[…]-3′ (Tm, 73.1 °C).
# HeLa cells were plated at 1.5 × 10^5 cells/well in six-well plates in their growth medium without antibiotics. […]
# For the GPR55-internalisation assay, after stimulation, the HeLa cells were washed twice with cold HBSS^++, stained while adhered with the monoclonal anti-HA antibody (1:1000) in PBS plus 3% BSA for 1 h on ice, washed three times with cold PBS, incubated with the Alexa488-tagged anti-mouse antibody (1:800) in PBS plus 3% BSA for 45 min on ice. […] The collected cells were centrifuged at 300×g, suspended in PBS plus 3% BSA, and analysed by FACS.
# RAW264.7 cells [1] = assay: Filamentous actin (phalloidin) FACS analysis of RAW264.7 cells; assay type: cell-based, murine; settings: 10 µM soybean LPI
# Method: (§1) For transient interference of Gpr55, RAW264.7 cells were plated at 6 × 10^5 cells/well in six-well plates in growth medium without antibiotics. Twenty-four hours later, the cells were transfected with 250 pmol/well non-targeting small-interfering (si)RNAs (si-NT; siGENOME siRNA Pool #2; D-001206-14; Dharmacon, Chicago, IL, USA) or Gpr55-specific siRNAs (si-GPR55; siGENOME mouse GPR55 SMART pool; M-043590-01; Dharmacon) using Lipofectamine LTX and Plus Reagent, according to the manufacturer instructions. Twenty-four hours later, the cells were plated for the different assays or for RNA extraction. The efficiency of interference was monitored by real-time PCR after 72 h of interference, using the primers listed in the Additional file 1: Table S1. β2-microglobulin was followed as a housekeeping gene.
# Twenty-four hours after plating the RAW264.7 cells at a density of 1.2 × 10^6 cells/well in six-well plates, or 2.5 × 10^5 cells/well in 24-well plates on coverslips, the cells were serum deprived for 2 h and then stimulated while adhered, with LPI in the assay buffer (0.1% faf-BSA, 20 mM HEPES in HBSS^++). Stimulation was blocked by two washes with HBSS^++, and cells on coverslips were processed for immunofluorescence (see below), while the cells in the six-well plates were scraped into cytoskeleton buffer (10 mM 4-morpholineethanesulfonic acid, 150 mM NaCl, 5 mM EGTA, 5 mM MgCl2, 5 mM glucose), for FACS analysis. For the latter, an equal volume of fixation solution (1% Triton X-100, 0.5% glutaraldehyde, in cytoskeleton buffer) was added to the cell suspension and left for 2 min at room temperature. […] Finally, the fixed cells were stained with 33 nM Alexa546-labelled phalloidin for 1 h at room temperature, washed three times (10 min each) with cytoskeleton buffer, suspended in PBS with 3% BSA, and analysed by FACS (FACSCalibur or FACSAria III; Becton Dickinson, Franklin Lakes, NJ).
# RAW264.7 cells [2] = assay: Filopodium formation / actin morphology in siRNA-interfered RAW264.7 cells (confocal microscopy); assay type: cell-based, murine; settings: 10 µM soybean LPI
# Method: as §1
# Twenty-four hours after plating the RAW264.7 cells at a density of 1.2 × 10^6 cells/well in six-well plates, or 2.5 × 10^5 cells/well in 24-well plates on coverslips, the cells were serum deprived for 2 h and then stimulated while adhered, with LPI in the assay buffer (0.1% faf-BSA, 20 mM HEPES in HBSS^++). […] Finally, the fixed cells were stained with 33 nM Alexa546-labelled phalloidin for 1 h at room temperature, washed three times (10 min each) with cytoskeleton buffer, suspended in PBS with 3% BSA, and analysed by FACS (FACSCalibur or FACSAria III; Becton Dickinson, Franklin Lakes, NJ). […]
substance,measurement,setting,value
lysophosphatidylinositol [LPI],reduction of cell-surface level of receptor,ssGPR55-Q87A,15%
same,"mean phalloidin fluorescence on LPI addition, si-GPR55",RAW264.7 cells [1]; si-GPR55 cells,did not increase further on LPI addition
same,"mean phalloidin fluorescence, si-NT",RAW264.7 cells [1]; si-NT cells,significant increase in the mean phalloidin fluorescence
same,maximal increase in phalloidin mean fluorescence,"RAW264.7 cells [1]; wild-type RAW264.7, 15 min, sub-populations #1 and #2, at least five independent experiments",20%
same,"actin cytoskeleton reorganisation, si-GPR55",RAW264.7 cells [2]; si-GPR55 cells,no significant signs of actin cytoskeleton reorganisation
same,"numbers of filopodia, si-NT",RAW264.7 cells [2]; si-NT cells,time-dependent increase in the numbers of filopodia
